Measured values taken from patent US4036846A, “3-Hydroxy and 3-acetoxy-6-triphenyl-methylaminopenams” (priority 1976, dated 1977).
Where “and” joins values, the source holds several entries; their conditions need not be identical. Equal entries are not always repeated. Structures can show the parent of a compound that is named as a salt. Where two headings read alike, the source gives them in different places.

Assays:
Assay in all cases: microbe, parasite or virus in culture
[1] = system: Staph. aureus 01A005; type: cell-based, Staphlococcus aureus; settings: brain-heart infusion agar, 37° C., anaerobic, sodium salts, separate Test Nos. 1-3; for MIC: Staphylococcus aureus
[2] = system: Staph. aureus 01A006; type: cell-based, Staphlococcus aureus; settings: brain-heart infusion agar, 37° C., anaerobic, sodium salts, separate Test Nos. 1-3; for MIC: Staphylococcus aureus
[3] = system: Strep. zoo. 02H001; type: cell-based, Streptococcus zoobacter; settings: brain-heart infusion agar, 37° C., anaerobic, sodium salts, separate Test Nos. 1-3; for MIC: Streptococcus
[4] = system: Strep. equi. 02I001; type: cell-based, Streptococcus equis; settings: brain-heart infusion agar, 37° C., anaerobic, sodium salts, separate Test Nos. 1-3

COP(=O)(O)C1N2C(=O)C(NC(=O)COc3ccccc3)C2SC1(C)C (centres unmarked) [6-(2-Phenoxyacetamido)-2,2-dimethyl-3-(0-methylphosphono)penam, sodium salt]
MIC ([1]; Staph. aureus 01A005, read-out: MIC (minimal inhibitory concentration)): 200 µg/mL | MIC ([2]; Staph. aureus 01A006, read-out: MIC (minimal inhibitory concentration)): 200 µg/mL | MIC ([3]; Strep. zoo. 02H001, read-out: MIC (minimal inhibitory concentration)): > 200 µg/mL

CC1(C)S[C@@H]2C(NC(=O)COc3ccccc3)C(=O)N2C1P(=O)(O)O.[Na] (some centres unmarked) [6-(2-Phenoxyacetamido)-2,2-dimethyl-3-phosphonopenam, sodium salt]
MIC (minimal inhibitory concentration) ([1]; Staph. aureus 01A005, sodium salt): > 200 µg/mL | MIC ([1]; 01A005, read-out: MIC (minimal inhibitory concentration), Staph. aureus 01A005): 200 µg/mL | MIC (minimal inhibitory concentration) ([2]; Staph. aureus 01A006, sodium salt): > 200 µg/mL | MIC ([2]; 01A006, read-out: MIC (minimal inhibitory concentration), Staph. aureus 01A006): 200 µg/mL | MIC (minimal inhibitory concentration) ([4]; Strep. equi. 02I001, sodium salt): 100 µg/mL | MIC ([4]; Streptococcus equi, read-out: MIC (minimal inhibitory concentration), Strep. equi. 02I001): > 200 µg/mL | MIC (minimal inhibitory concentration) ([3]; Strep. zoo. 02H001, sodium salt): 100 µg/mL and 200 µg/mL | MIC ([3]; read-out: MIC (minimal inhibitory concentration), Strep. zoo. 02H001): > 200 µg/mL
